In patent publication US10669272B2, “Substituted naphthyridinone compounds useful as T cell activators” (BRISTOL-MYERS SQUIBB COMPANY, priority 2018, dated 2020):
Like-named read-outs stand apart in the source and are kept apart here.

Columns and labels:
Human venous whole blood = assay: Human whole blood IFN-γ assay; format: cell-based; conditions: human whole blood, read-out: INFg Whole Blood Normalized Agonist EC50;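 also: blood from healthy donors exposed to compound for 1 h before stimulation with anti-CD3 and anti-CD28 at 1 µg/mL each, IFN-γ quantified in supernatant by AlphaLISA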
Procedure: Human Whole Blood IFN-γ Assay
Human venous whole blood (22.5 μL per well), obtained from healthy donors, was pre-treated with compounds for one hour at 37° C. in a humidified 95% air/5% CO2 incubator. The blood was stimulated with 2.5 μL anti-human CD3 and anti-CD28 mAb at a final concentration of 1 μg/mL each for 24 hours at 37° C. IFN-γ in the supernatants was measured using AlphLISA kit (Cat # AL217).

human DGKα = target: T1, human DGKα (Homo sapiens, UniProt P23743); assay: DGKα LIPGLO assay (extruded liposome substrate), in vitro DGK inhibition; format: biochemical; conditions: read-out: DGKa LIPGLO IC50
T1 construct: TVMV protease cleavage site (C); Hexa-His (C); made in house; host or cells: Sf9 insect cells (baculovirus, Bac-to-Bac)

human DGKζ = target: T2, human DGKζ (Homo sapiens, UniProt Q13574); assay: DGKζ LIPGLO assay (extruded liposome substrate), in vitro DGK inhibition; format: biochemical; conditions: read-out: DGKz LIPGLO IC50
T2 construct: TVMV protease cleavage site (C); Hexa-His (C); made in house; host or cells: Sf9 insect cells (baculovirus, Bac-to-Bac)

naïve human CD8 T cells = assay: Human CD8 T cells IFN-γ assay; format: cell-based; conditions: read-out: HuCD8 INFG Normalized EC50;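 also: Naïve human CD8 T cells stimulated with plate-bound anti-CD3 and soluble anti-CD28, IFN-γ in supernatant quantified by AlphaLISA and converted to pg/mL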
[1] = Homo sapiens, 24 h, normalized to 3 μM reference compound with anti-CD3 plus anti-CD28 as 100% activation
[2] = Homo sapiens, T-cell, 20 h, normalized to 3 μM reference compound with anti-CD3 plus anti-CD28 as 100% activation
[3] = normalized to 3 μM reference compound with anti-CD3 plus anti-CD28 as 100% activation
[4] = anti-CD3 plus anti-CD28, 24 hours, 3 μM reference compound = 100% activation
[5] = Homo sapiens, T-cell, 20 h, naïve human CD8 T cells, anti-CD3 plus anti-CD28, 3 μM reference compound = 100% activation

T2 sequence (Q13574 with tags, fused parts or gaps isoform Q13574-4): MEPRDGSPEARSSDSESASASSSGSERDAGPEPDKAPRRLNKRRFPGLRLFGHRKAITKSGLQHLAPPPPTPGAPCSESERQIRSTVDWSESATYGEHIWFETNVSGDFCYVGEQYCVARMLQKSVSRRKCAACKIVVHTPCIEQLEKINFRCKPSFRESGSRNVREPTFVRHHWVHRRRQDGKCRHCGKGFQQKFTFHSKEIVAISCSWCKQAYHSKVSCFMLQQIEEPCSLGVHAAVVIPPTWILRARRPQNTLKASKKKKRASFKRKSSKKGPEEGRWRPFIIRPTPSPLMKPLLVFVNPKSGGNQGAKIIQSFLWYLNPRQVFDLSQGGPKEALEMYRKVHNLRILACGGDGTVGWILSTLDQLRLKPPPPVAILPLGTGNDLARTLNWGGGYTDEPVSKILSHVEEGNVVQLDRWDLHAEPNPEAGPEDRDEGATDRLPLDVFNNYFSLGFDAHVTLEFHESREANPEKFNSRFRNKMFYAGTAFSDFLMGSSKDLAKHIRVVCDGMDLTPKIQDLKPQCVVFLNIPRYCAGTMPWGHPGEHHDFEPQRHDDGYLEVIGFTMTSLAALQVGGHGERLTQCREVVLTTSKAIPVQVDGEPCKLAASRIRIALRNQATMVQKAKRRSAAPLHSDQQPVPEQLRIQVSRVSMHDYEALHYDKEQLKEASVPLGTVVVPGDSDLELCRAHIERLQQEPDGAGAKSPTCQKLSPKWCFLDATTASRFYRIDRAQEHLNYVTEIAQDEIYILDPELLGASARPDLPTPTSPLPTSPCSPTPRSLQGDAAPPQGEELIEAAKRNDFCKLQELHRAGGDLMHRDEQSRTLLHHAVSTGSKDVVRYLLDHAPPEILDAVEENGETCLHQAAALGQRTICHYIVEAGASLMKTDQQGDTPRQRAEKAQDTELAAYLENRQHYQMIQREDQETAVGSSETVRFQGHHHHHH
T1 sequence (P23743 with tags, fused parts or gaps): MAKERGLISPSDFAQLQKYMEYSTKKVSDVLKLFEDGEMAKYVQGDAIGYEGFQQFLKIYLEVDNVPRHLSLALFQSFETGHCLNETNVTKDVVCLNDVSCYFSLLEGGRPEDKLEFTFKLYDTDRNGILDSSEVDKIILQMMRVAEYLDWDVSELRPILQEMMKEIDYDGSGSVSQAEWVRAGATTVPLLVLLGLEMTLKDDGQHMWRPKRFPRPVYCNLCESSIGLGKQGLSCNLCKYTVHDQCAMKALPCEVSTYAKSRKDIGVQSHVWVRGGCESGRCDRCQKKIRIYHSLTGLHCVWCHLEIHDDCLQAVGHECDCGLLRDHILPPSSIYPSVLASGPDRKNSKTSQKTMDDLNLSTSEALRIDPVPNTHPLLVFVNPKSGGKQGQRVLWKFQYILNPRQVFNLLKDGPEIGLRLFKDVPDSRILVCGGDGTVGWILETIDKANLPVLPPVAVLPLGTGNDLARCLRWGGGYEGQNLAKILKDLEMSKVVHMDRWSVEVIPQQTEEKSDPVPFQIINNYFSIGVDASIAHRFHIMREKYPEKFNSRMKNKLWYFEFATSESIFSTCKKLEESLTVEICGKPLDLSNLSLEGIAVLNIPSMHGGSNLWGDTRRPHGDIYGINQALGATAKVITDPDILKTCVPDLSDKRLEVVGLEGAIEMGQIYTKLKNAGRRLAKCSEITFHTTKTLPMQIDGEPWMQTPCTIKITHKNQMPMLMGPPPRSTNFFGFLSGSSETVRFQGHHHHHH

Structure (SMILES)	EC50 (Human venous whole blood; [1])	IC50 (human DGKα; liposome (LIPGLO) assay)	IC50 (human DGKζ; liposome (LIPGLO) assay)	EC50 (naïve human CD8 T cells; [2])	EC50 (Human venous whole blood; [3])	EC50 (naïve human CD8 T cells; [3])	EC50 (Human venous whole blood; [4])	IC50 (human DGKα; DGKα liposome (LIPGLO) assay)	IC50 (human DGKζ; DGKζ liposome (LIPGLO) assay)	EC50 (naïve human CD8 T cells; [5])
C[C@@H]1CN(c2c(F)c(=O)n(C)c3ccc(C#N)nc23)CCN1C(c1ccc(Cl)cc1)c1ccc(Cl)cc1 [Example 34, (R)-8-(4-(bis(4-chlorophenyl)methyl)-3-methylpiperazin-1-yl)-7-fluoro-5-methyl-6-oxo-5,6-dihydro-1,5-naphthyridine-2-carbonitrile]	1300 nM	690 nM	510 nM	180 nM	–	–	–	–	–	–
COc1ncccc1C(c1ccc(F)cc1)N1C[C@H](C)N(c2cc(=O)n(C)c3ccc(C#N)nc23)C[C@H]1C (single isomer, unassigned) [Example 209]	1500 nM	15000 nM	320 nM	170 nM	–	–	–	–	–	–
Cc1ccc(C(c2ccc(Cl)cn2)N2C[C@H](C)N(c3cc(=O)n(C)c4ccc(C#N)nc34)C[C@H]2C)cc1 (single isomer, unassigned) [Example 200]	–	61 nM	200 nM	–	540 nM	40 nM	–	–	–	–
CC[C@H]1CN(C(c2ccc(Cl)cc2)c2ccc(Cl)cc2)[C@H](C)CN1c1cc(=O)n(C)c2ccc(C#N)nc12 [Example 1120]	680 nM	110 nM	75 nM	32 nM	–	–	–	–	–	–
CC[C@@H]1CN(c2cc(=O)n(C)c3ccc(C#N)nc23)[C@@H](C)CN1C(c1ccc(F)cc1)c1ccc(C#N)cc1 (single isomer, unassigned) [Example 1102]	220 nM	640 nM	1400 nM	31 nM	–	–	–	–	–	–
C[C@@H]1CN(c2cc(=O)n(C)c3ccc(C#N)nc23)[C@@H](C)CN1C(c1ccc(Cl)cc1)c1cccc(F)n1 (single isomer, unassigned) [Example 196]	–	1300 nM	3000 nM	–	1400 nM	47 nM	–	–	–	–
CC(c1ccc(C(F)(F)F)cc1F)N1C[C@H](C)N(c2cc(=O)n(C)c3ccc(C#N)nc23)C[C@H]1C (single isomer, unassigned) [Example 434]	600 nM	1800 nM	700 nM	5.7 nM	–	–	–	–	–	–
CC[C@H]1CN(C(c2ccc(F)cc2)c2ncccc2F)[C@H](CC)CN1c1cc(=O)n(C)c2ccc(C#N)nc12 (single isomer, unassigned) [Example 1037]	–	49 nM	280 nM	14 nM	130 nM	–	–	–	–	–
C[C@@H]1CN(c2cc(=O)n(C)c3ccc(C#N)nc23)[C@@H](C)CN1C(c1cccc(F)c1)c1cccc(F)c1 [Example 270, 8-[(2S,5R)-4-[bis(3-fluorophenyl)methyl]-2,5-dimethylpiperazin-1-yl]-5-methyl-6-oxo-5,6-dihydro-1,5-naphthyridine-2-carbonitrile]	2000 nM	3400 nM	570 nM	62 nM	–	–	–	–	–	–
C[C@@H]1CN(c2c(C#N)c(=O)n(C)c3ccc(C#N)nc23)CCN1C(c1ccc(F)cc1)c1ccccn1 (single isomer, unassigned) [Example 918]	–	–	–	–	–	–	380 nM	52 nM	380 nM	130 nM
C[C@@H]1CN(c2cc(=O)n(C)c3ccc(C#N)nc23)[C@@H](C)CN1C(c1ccc(F)cc1)c1ccc(Cl)cn1 (single isomer, unassigned) [Example 212]	–	210 nM	590 nM	–	890 nM	57 nM	–	–	–	–
COc1ccc(C(c2cccc(F)c2)N2C[C@H](C)N(c3cc(=O)n(C)c4ccc(C#N)nc34)C[C@H]2C)nc1 (single isomer, unassigned) [Example 687]	–	1600 nM	730 nM	17 nM	270 nM	–	–	–	–	–
C[C@@H]1CN(c2cc(=O)n(C)c3ccc(C#N)nc23)[C@@H](C)CN1C(c1ccc(F)cc1)c1cccc2c1OC(F)(F)O2 (stereo partly shown) [Example 669]	–	140000 nM	4800 nM	–	860 nM	96 nM	–	–	–	–
C[C@@H]1CN(c2cc(=O)n(C)c3ccc(C#N)nc23)[C@@H](C)CN1Cc1ccccc1F [Example 287, 8-[(2S,5R)-4-[(2-fluorophenyl)methyl]-2,5-dimethylpiperazin-1-yl]-5-methyl-6-oxo-5,6-dihydro-1,5-naphthyridine-2-carbonitrile]	7100 nM	34 nM	1600 nM	12000 nM	–	–	–	–	–	–
C[C@@H]1CN(c2cc(=O)n(C)c3ccc(C#N)nc23)[C@@H](C)CN1Cc1ccccc1 [Example 264, 8-[(2S,5R)-4-benzyl-2,5-dimethylpiperazin-1-yl]-5-methyl-6-oxo-5,6-dihydro-1,5-naphthyridine-2-carbonitrile]	11000 nM	35 nM	3000 nM	260 nM	–	–	–	–	–	–
C[C@@H]1CN(c2cc(=O)n(C)c3ccc(C#N)nc23)[C@@H](C)CN1C(c1ccc(Cl)cc1)c1ccc(Cl)cn1 (single isomer, unassigned) [Example 201]	500 nM	450 nM	790 nM	–	–	31 nM	–	–	–	–
C[C@@H]1CN(c2c(C#N)c(=O)n(C)c3ccc(C#N)nc23)CCN1C(c1cccc(Cl)c1)c1ccc(F)cn1 (stereo partly shown) [Example 927]	–	–	–	–	–	–	800 nM	2600 nM	1600 nM	300 nM
C[C@@H]1CN(c2cc(=O)n(C)c3ccc(C#N)nc23)[C@@H](C)CN1C(c1ccccc1)c1ccccc1Cl (stereo partly drawn) [Example 259, 8-[(2S,5R)-4-[(2-chlorophenyl)(phenyl)methyl]-2,5-dimethylpiperazin-1-yl]-5-methyl-6-oxo-5,6-dihydro-1,5-naphthyridine-2-carbonitrile]	2100 nM	3100 nM	840 nM	550 nM	–	–	–	–	–	–
Cc1nc(C(F)(F)F)ccc1CN1C[C@H](C)N(c2cc(=O)n(C)c3ccc(C#N)nc23)C[C@H]1C [Example 279, 8-[(2S,5R)-2,5-dimethyl-4-{[2-methyl-6-(trifluoromethyl)pyridin-3-yl]methyl}piperazin-1-yl]-5-methyl-6-oxo-5,6-dihydro-1,5-naphthyridine-2-carbonitrile]	3700 nM	2300 nM	4600 nM	1200 nM	–	–	–	–	–	–
CCOC[C@@H]1CN(c2cc(=O)n(C)c3ccc(C#N)nc23)[C@@H](C)CN1C(c1ccc(F)cc1)c1ccc(F)cc1 [Example 1164, 8-((2S,5S)-4-(bis(4-fluorophenyl)methyl)-5-(ethoxymethyl)-2-methylpiperazin-1-yl)-5-methyl-6-oxo-5,6-dihydro-1,5-naphthyridine-2-carbonitrile]	340 nM	18000 nM	670 nM	17 nM	–	–	–	–	–	–
C[C@@H]1CN(c2cc(=O)n(C)c3ccc(C#N)nc23)[C@@H](C)CN1C(c1ccc(F)cc1)c1ccccn1 (single isomer, unassigned) [Example 198]	–	240 nM	870 nM	–	590 nM	21 nM	–	–	–	–
C[C@H]1CN(C(c2ccc(F)cc2)c2ccc(F)cc2)[C@H](CN2CCOCC2)CN1c1cc(=O)n(C)c2ccc(C#N)nc12 [Example 1167, 8-((2S,5R)-4-(bis(4-fluorophenyl)methyl)-2-methyl-5-(morpholinomethyl)piperazin-1-yl)-5-methyl-6-oxo-5,6-dihydro-1,5-naphthyridine-2-carbonitrile]	970 nM	50000 nM	6600 nM	47 nM	–	–	–	–	–	–
C[C@@H]1CN(c2cc(=O)n(C)c3ccc(C#N)nc23)[C@@H](C)CN1C(c1ccc(F)cc1)c1ccc(F)cn1 (single isomer, unassigned) [Example 194]	980 nM	200 nM	680 nM	40 nM	–	–	–	–	–	–
C[C@@H]1CN(c2c(Cl)c(=O)n(C)c3ccc(C#N)nc23)[C@@H](C)CN1C(c1ccccc1)c1ccc(F)cc1 (single isomer, unassigned) [Example 217]	20000 nM	50000 nM	140000 nM	7800 nM	–	–	–	–	–	–
C[C@@H]1CN(c2cc(=O)n(C)c3ccc(C#N)nc23)[C@@H](C)CN1C(c1ccccc1F)c1ccccc1F [Example 258, 8-[(2S,5R)-4-[bis(2-fluorophenyl)methyl]-2,5-dimethylpiperazin-1-yl]-5-methyl-6-oxo-5,6-dihydro-1,5-naphthyridine-2-carbonitrile]	1400 nM	240 nM	820 nM	56 nM	–	–	–	–	–	–
CCc1ccc(C(c2cccc(F)c2)N2C[C@H](C)N(c3cc(=O)n(C)c4ccc(C#N)nc34)C[C@H]2C)nc1 (single isomer, unassigned) [Example 350]	–	1900 nM	1800 nM	–	850 nM	200 nM	–	–	–	–
Cc1ccc(C(c2cccc(Cl)c2)N2C[C@H](C)N(c3cc(=O)n(C)c4ccc(C#N)nc34)C[C@H]2C)nc1 (single isomer, unassigned) [Example 372]	–	550 nM	270 nM	–	270 nM	22 nM	–	–	–	–
COc1cc(F)ccc1C(N1C[C@H](C)N(c2cc(=O)n(C)c3ccc(C#N)nc23)C[C@H]1C)C(C)(C)C (single isomer, unassigned) [Example 186]	–	3300 nM	14000 nM	–	20000 nM	10000 nM	–	–	–	–
